In ChEMBL document CHEMBL4000206, “An efficient anticoagulant candidate: Characterization, synthesis and in vivo study of a fondaparinux analogue Rrt1.17” (Eur J Med Chem, 2017):
pIC50: −log10 of the molar value. Calls of active or inactive are those of the source. The rule behind the calls is not given here.

Tests used:
Coagulation factor X [1] = target: T1, Coagulation factor X (Homo sapiens, UniProt P00742); assay: Inhibition of factor 10a (unknown origin) using S-2765 as substrate preincubated with AT-3 followed by factor 10a addition for 60 secs and subsequent addition of substrate for 60 secs measured after 4 mins
Coagulation factor X [2] = target: T1, Coagulation factor X; assay: Inhibition of factor 10a (unknown origin) using S-2765 as substrate assessed as compound potency preincubated with AT-3 followed by factor 10a addition for 60 secs and subsequent addition of substrate for 60 secs measured after 4 mins
Rattus norvegicus [3] = assay: Antithrombotic activity in Wistar rat venous thrombosis model assessed as reduction in weight of vein thrombus at 300 IU/kg, sc administered 1 hr prior to induction of thrombosis measured after 30 mins; format: functional, organism-based
Rattus norvegicus [4] = assay: Antithrombotic activity in Wistar rat venous thrombosis model assessed as reduction in weight of vein thrombus at 100 to 500 IU/kg, sc administered 1 hr prior to induction of thrombosis measured after 30 mins; format: functional, organism-based

T1 sequence (P00742 41-179 limits assumed): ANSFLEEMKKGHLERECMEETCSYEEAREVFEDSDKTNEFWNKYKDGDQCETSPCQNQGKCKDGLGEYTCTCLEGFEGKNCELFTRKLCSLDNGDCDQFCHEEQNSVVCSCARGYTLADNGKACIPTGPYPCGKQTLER
T1 sequence (P00742 235-488 limits assumed): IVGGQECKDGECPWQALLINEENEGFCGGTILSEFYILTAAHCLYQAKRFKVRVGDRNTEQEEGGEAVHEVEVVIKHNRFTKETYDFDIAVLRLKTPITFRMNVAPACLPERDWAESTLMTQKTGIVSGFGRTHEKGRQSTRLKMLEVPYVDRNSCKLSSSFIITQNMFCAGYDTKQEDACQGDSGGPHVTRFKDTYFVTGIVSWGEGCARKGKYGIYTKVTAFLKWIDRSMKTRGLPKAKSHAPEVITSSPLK

CC.O=C(O)[C@H]1O[C@@H](O[C@H]2[C@H](OS(=O)(=O)O)[C@@H](NS(=O)(=O)O)[C@H](O[C@H]3[C@H](O)[C@@H](OS(=O)(=O)O)[C@H](O[C@@H]4[C@H](O)[C@@H](CO)O[C@@H]4CS(=O)(=O)O)O[C@H]3C(=O)O)O[C@@H]2COS(=O)(=O)O)[C@H](O)[C@@H](O)[C@@H]1O[C@H]1O[C@H](COS(=O)(=O)O)[C@@H](O)[C@H](O)[C@H]1NS(=O)(=O)O
pIC50 (Coagulation factor X [1]): 7.68

CO[C@H]1O[C@H](COS(=O)(=O)O)[C@@H](O[C@@H]2O[C@@H](C(=O)O)[C@@H](O[C@@H]3O[C@H](COS(=O)(=O)O)[C@@H](O[C@@H]4O[C@H](C(=O)O)[C@@H](O[C@H]5O[C@H](COS(=O)(=O)O)[C@@H](O)[C@H](O)[C@H]5NS(=O)(=O)O)[C@H](O)[C@H]4O)[C@H](OS(=O)(=O)O)[C@H]3NS(=O)(=O)O)[C@H](O)[C@H]2OS(=O)(=O)O)[C@H](O)[C@H]1NS(=O)(=O)O
pIC50 (Coagulation factor X [1]): 9.01
INH (Coagulation factor X [2]): 1170 IU/mg
Activity (Rattus norvegicus [3]): Active

CO[C@H]1O[C@H](COS(=O)(=O)O)[C@@H](O[C@@H]2O[C@@H](C(=O)O)[C@@H](O[C@@H]3O[C@H](COS(=O)(=O)O)[C@@H](O[C@@H]4O[C@H](C(=O)O)[C@@H](O[C@H]5O[C@H](COS(=O)(=O)O)[C@@H](O)[C@H](O)[C@H]5NS(=O)(=O)O)[C@H](O)[C@H]4O)[C@H](OS(=O)(=O)O)[C@H]3NS(=O)(=O)O)[C@H](OS(=O)(=O)O)[C@H]2OS(=O)(=O)O)[C@H](O)[C@H]1NS(=O)(=O)O
pIC50 (Coagulation factor X [1]): 8.03
INH (Coagulation factor X [2]): 185 IU/mg

CO[C@H]1O[C@H](COS(=O)(=O)O)[C@@H](O[C@@H]2O[C@@H](C(=O)O)[C@@H](O[C@@H]3O[C@H](COS(=O)(=O)O)[C@@H](O[C@@H]4O[C@H](C(=O)O)[C@@H](O[C@H]5O[C@H](COS(=O)(=O)O)[C@@H](O)[C@H](O)[C@H]5N)[C@H](O)[C@H]4O)[C@H](OS(=O)(=O)O)[C@H]3N)[C@H](O)[C@H]2OS(=O)(=O)O)[C@H](O)[C@H]1NS(=O)(=O)O
pIC50 (Coagulation factor X [1]): 6.01
INH (Coagulation factor X [2]): 1.32 IU/mg

CC.COC1O[C@H](COS(=O)(=O)O)[C@@H](O[C@@H]2O[C@@H](C(=O)O)[C@@H](O[C@@H]3O[C@H](COS(=O)(=O)O)[C@@H](O[C@@H]4O[C@H](C(=O)O)[C@@H](O[C@H]5O[C@H](COS(=O)(=O)O)[C@@H](O)[C@H](O)[C@H]5NS(=O)(=O)O)[C@H](O)[C@H]4O)[C@H](OS(=O)(=O)O)[C@H]3NS(=O)(=O)O)[C@H](O)[C@H]2OS(=O)(=O)O)[C@H](O)[C@H]1NS(=O)(=O)O (single isomer, unassigned)
pIC50 (Coagulation factor X [1]): 8.52
INH (Coagulation factor X [2]): 719 IU/mg

CO[C@H]1O[C@H](COS(=O)(=O)O)[C@@H](O[C@@H]2O[C@@H](C(=O)O)[C@@H](O[C@@H]3O[C@H](COS(=O)(=O)O)[C@@H](O[C@@H]4O[C@H](C(=O)O)[C@@H](O[C@H]5O[C@H](COS(=O)(=O)O)[C@@H](O)[C@H](O)[C@H]5NS(=O)(=O)O)[C@H](O)[C@H]4O)[C@H](OS(=O)(=O)O)[C@H]3N)[C@H](O)[C@H]2OS(=O)(=O)O)[C@H](O)[C@H]1NS(=O)(=O)O
pIC50 (Coagulation factor X [1]): 6.31
INH (Coagulation factor X [2]): 2.15 IU/mg

CO[C@H]1O[C@H](COS(=O)(=O)O)[C@@H](O[C@@H]2O[C@H]3C(=O)N[C@H]4[C@H](O[C@@H]3[C@H](O)[C@H]2OS(=O)(=O)O)O[C@H](COS(=O)(=O)O)[C@@H](O[C@@H]2O[C@H](C(=O)O)[C@@H](O[C@H]3O[C@H](COS(=O)(=O)O)[C@@H](O)[C@H](O)[C@H]3NS(=O)(=O)O)[C@H](O)[C@H]2O)[C@@H]4OS(=O)(=O)O)[C@H](O)[C@H]1NS(=O)(=O)O
pIC50 (Coagulation factor X [1]): 7.70
INH (Coagulation factor X [2]): 83.5 IU/mg

CO[C@H]1O[C@H](COS(=O)(=O)O)[C@@H](O[C@@H]2O[C@@H](C(=O)O)[C@@H](O[C@@H]3O[C@H](COS(=O)(=O)O)[C@@H](O[C@@H]4O[C@H](C(=O)O)[C@@H](O[C@H]5O[C@H](COS(=O)(=O)O)[C@@H](O)[C@H](O)[C@H]5NS(=O)(=O)O)[C@H](O)[C@H]4O)[C@H](OS(=O)(=O)O)[C@H]3NS(=O)(=O)O)[C@H](O)[C@H]2OS(=O)(=O)O)[C@H](O)[C@H]1N(C)S(=O)(=O)O
pIC50 (Coagulation factor X [1]): 8.78
INH (Coagulation factor X [2]): 1140 IU/mg
Activity (Rattus norvegicus [4]): Active

CO[C@H]1O[C@H](COS(=O)(=O)O)[C@@H](O[C@@H]2O[C@@H](C(=O)O)[C@@H](O[C@@H]3O[C@H](COS(=O)(=O)O)[C@@H](O[C@@H]4O[C@H](C(=O)O)[C@@H](O[C@H]5O[C@H](COS(=O)(=O)O)[C@@H](O)[C@H](O)[C@H]5NC=O)[C@H](O)[C@H]4O)[C@H](OS(=O)(=O)O)[C@H]3NS(=O)(=O)O)[C@H](O)[C@H]2OS(=O)(=O)O)[C@H](O)[C@H]1NS(=O)(=O)O
pIC50 (Coagulation factor X [1]): 8.94
INH (Coagulation factor X [2]): 1260 IU/mg
